The values that follow are results of earlier work, collected in patent US20210290563A1, “COMPOSITIONS AND METHODS FOR TREATING NEUROP[…]” (BIONICHE GLOBAL DEVELOPMENT, LLC, priority 2017, published 2021).

Like-named read-outs stand apart in the source and are kept apart here.

Test in series [1]: not given
This is another data set of the same source.

`CC(C)c1cccc(C(C)C)c1OCOP(=O)(O)O` [Fospropofol disodium]: the solubility in water result is reported as “water-soluble”.

In the case of `CC(C)c1cccc(C(C)C)c1O` [Propofol, 2,6-diisopropylphenol], the solubility in water result is given as “only sparingly soluble in water”. In series [1] (buccal administration), the bioavailability estimates was roughly 50%. The bioavailability estimates in series [1] (intramuscular administration) was roughly 93%. Further, in series [1] (intranasal administration), the bioavailability estimates is recorded as 25-50%. Moreover, the bioavailability estimates in series [1] (intravenous administration) is recorded as roughly 100%. The bioavailability estimates in series [1] (oral administration) was 13-27%. In addition, in series [1] (rectal administration), the bioavailability estimates is given as roughly 25%. Further, the bioavailability estimates in series [1] (transdermal administration) is on record as roughly 10%.
